From paper PMC9030254, “Target Hopping from Protein Kinases to PXR: Identification of Small-Molecule Protein Kinase Inhibitors as Selective Modulators of Pregnane X Receptor from TüKIC Library” (Cells, 2022)

Experiments:
Test in all cases: Kinase profiling
Assay type in all cases: biochemical
PHKG2 = target: T1, PHKG2 (Homo sapiens, UniProt P15735)
T1 construct: purchased ProQinase (Freiburg, Germany)
T1 sequence (P15735 1-406): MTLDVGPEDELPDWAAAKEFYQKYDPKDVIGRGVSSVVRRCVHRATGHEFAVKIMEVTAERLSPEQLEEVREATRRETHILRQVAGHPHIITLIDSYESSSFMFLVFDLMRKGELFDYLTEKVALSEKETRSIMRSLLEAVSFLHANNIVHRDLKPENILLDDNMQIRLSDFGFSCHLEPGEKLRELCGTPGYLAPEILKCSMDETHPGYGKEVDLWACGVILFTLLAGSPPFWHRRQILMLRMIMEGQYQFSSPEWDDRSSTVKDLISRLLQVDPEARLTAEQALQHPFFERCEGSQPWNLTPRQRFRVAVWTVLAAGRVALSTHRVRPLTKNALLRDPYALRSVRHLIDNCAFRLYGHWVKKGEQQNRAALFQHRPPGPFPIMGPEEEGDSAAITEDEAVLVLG
Description: (§1) The analysis was performed by ProQinase (Freiburg, Germany).

AuroraB = target: T2, AuroraB (Homo sapiens, UniProt Q96GD4)
T2 construct: purchased ProQinase (Freiburg, Germany)
T2 sequence (Q96GD4 whole entry): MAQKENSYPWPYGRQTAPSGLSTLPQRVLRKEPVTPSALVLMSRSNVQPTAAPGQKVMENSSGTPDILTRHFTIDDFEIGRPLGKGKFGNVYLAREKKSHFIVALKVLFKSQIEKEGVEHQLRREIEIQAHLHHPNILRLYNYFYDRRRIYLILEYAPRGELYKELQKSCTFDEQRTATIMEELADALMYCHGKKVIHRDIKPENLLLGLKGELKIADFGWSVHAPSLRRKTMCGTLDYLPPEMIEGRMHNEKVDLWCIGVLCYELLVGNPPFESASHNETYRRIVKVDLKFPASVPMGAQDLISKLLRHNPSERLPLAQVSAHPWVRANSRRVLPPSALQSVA
Description: as §1

CHK2 = target: T3, CHK2 (Homo sapiens, UniProt O96017)
T3 construct: purchased ProQinase (Freiburg, Germany)
T3 sequence (O96017 whole entry): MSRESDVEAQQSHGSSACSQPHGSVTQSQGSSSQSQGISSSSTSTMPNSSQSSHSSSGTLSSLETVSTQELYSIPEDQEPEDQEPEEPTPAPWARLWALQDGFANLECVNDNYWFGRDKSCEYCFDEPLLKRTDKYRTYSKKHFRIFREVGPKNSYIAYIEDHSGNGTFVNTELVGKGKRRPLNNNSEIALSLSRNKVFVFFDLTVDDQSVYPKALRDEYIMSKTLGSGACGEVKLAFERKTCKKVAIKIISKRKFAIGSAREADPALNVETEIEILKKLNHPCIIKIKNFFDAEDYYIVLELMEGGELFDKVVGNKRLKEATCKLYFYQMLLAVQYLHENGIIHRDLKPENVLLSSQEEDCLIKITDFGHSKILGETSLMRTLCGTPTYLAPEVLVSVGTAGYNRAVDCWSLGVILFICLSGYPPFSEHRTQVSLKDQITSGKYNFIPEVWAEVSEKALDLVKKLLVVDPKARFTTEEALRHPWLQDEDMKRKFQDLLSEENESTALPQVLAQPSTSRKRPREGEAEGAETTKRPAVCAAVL
Description: as §1

AMPKalpha1 = target: T4, AMPKalpha1 (Homo sapiens, UniProt Q13131)
T4 construct: purchased ProQinase (Freiburg, Germany)
Description: as §1

AKT3 = target: T5, AKT3 (Homo sapiens, UniProt Q9Y243)
T5 construct: purchased ProQinase (Freiburg, Germany)
T5 sequence (Q9Y243 whole entry): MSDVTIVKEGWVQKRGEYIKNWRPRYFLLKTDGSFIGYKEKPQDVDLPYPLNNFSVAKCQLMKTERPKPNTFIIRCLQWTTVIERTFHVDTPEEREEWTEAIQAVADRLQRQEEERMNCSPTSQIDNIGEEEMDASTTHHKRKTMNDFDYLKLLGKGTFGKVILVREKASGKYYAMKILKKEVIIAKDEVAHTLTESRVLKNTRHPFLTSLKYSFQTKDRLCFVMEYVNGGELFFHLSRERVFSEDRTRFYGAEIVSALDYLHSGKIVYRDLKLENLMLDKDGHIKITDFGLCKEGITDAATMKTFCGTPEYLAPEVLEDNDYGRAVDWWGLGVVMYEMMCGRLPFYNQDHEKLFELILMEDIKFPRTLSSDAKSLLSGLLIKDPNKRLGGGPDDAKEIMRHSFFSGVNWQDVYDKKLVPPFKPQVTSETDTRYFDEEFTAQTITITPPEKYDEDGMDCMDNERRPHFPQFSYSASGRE
Description: as §1

CLK4 = target: T6, CLK4 (Homo sapiens, UniProt Q9HAZ1)
T6 construct: purchased ProQinase (Freiburg, Germany)
T6 sequence (Q9HAZ1 whole entry): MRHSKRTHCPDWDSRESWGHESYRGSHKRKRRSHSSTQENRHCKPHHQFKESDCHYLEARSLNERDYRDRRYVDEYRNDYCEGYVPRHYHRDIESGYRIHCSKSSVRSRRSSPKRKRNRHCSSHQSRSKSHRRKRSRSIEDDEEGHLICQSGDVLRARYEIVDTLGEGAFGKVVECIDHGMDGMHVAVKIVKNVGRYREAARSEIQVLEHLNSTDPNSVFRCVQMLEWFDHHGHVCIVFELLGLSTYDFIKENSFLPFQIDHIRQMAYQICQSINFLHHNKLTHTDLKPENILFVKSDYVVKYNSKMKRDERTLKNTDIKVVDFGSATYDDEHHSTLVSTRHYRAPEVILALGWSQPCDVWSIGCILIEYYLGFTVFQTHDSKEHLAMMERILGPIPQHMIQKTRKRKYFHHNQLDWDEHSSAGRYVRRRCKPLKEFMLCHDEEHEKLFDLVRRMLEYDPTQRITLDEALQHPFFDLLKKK
Description: as §1

CDK5/p35NCK = target: T7, CDK5/p35NCK (Homo sapiens, UniProt Q00535)
T7 construct: purchased ProQinase (Freiburg, Germany)
Description: as §1

PASK = target: T8, PASK (Homo sapiens, UniProt Q96RG2)
T8 construct: purchased ProQinase (Freiburg, Germany)
T8 sequence (Q96RG2 whole entry): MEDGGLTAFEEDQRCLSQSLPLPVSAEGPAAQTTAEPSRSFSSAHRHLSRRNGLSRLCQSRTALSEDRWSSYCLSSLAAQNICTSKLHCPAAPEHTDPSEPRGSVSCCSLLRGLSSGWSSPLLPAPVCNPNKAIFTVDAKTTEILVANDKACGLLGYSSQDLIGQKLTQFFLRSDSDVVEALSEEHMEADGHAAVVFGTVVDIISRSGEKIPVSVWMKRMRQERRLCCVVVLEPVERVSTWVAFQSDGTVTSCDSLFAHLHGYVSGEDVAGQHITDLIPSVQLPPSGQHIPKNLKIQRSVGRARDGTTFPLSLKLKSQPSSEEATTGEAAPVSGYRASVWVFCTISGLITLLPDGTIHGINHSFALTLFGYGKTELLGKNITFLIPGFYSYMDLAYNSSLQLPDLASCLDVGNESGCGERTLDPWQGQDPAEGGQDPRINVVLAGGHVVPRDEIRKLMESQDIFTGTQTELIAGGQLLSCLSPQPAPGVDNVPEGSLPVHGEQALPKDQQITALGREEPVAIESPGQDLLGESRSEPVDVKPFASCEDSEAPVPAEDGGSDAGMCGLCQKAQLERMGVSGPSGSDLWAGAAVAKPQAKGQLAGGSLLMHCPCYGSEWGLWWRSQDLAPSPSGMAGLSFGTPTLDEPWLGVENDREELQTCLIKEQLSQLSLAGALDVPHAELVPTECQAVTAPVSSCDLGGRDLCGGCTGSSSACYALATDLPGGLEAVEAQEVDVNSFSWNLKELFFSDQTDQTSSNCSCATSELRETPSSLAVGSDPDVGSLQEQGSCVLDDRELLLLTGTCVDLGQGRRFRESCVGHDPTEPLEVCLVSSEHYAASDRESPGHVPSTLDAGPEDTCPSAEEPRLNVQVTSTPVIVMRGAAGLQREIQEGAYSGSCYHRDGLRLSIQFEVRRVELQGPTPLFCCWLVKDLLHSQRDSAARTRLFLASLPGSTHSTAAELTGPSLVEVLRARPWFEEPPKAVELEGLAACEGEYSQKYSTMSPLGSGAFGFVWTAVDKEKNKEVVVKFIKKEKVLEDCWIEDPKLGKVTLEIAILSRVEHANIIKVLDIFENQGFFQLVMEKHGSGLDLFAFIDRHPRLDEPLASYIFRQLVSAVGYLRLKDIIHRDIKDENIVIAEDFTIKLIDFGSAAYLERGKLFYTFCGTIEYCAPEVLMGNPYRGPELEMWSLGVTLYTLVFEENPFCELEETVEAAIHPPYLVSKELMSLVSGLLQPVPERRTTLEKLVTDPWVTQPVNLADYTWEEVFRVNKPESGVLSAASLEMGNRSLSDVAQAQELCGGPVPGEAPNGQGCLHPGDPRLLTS
Description: as §1

PKCbeta2 = target: T9, PKCbeta2 (Homo sapiens, UniProt P05771)
T9 construct: purchased ProQinase (Freiburg, Germany)
Description: as §1

PDK1 = target: T10, PDK1 (Homo sapiens, UniProt O15530)
T10 construct: purchased ProQinase (Freiburg, Germany)
T10 sequence (O15530 1-556): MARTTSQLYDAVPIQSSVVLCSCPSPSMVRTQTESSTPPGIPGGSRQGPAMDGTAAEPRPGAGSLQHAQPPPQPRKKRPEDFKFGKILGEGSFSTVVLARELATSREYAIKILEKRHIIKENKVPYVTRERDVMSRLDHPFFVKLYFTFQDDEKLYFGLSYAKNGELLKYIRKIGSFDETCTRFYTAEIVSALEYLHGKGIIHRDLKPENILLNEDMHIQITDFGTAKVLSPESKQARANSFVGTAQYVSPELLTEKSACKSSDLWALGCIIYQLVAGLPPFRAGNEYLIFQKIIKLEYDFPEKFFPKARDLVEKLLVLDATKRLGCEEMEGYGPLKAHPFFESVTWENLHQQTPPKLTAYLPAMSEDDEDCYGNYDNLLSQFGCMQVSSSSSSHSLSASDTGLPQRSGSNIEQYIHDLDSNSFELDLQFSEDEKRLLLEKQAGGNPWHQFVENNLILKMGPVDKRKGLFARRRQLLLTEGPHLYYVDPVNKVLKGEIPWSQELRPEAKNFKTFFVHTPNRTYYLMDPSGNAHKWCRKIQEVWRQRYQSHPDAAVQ
Description: as §1

MAP3K9 = target: T11, MAP3K9 (Homo sapiens, UniProt P80192)
T11 construct: purchased ProQinase (Freiburg, Germany)
Description: as §1

MST2 = target: T12, MST2 (Homo sapiens, UniProt Q13188)
T12 construct: purchased ProQinase (Freiburg, Germany)
T12 sequence (Q13188 1-491): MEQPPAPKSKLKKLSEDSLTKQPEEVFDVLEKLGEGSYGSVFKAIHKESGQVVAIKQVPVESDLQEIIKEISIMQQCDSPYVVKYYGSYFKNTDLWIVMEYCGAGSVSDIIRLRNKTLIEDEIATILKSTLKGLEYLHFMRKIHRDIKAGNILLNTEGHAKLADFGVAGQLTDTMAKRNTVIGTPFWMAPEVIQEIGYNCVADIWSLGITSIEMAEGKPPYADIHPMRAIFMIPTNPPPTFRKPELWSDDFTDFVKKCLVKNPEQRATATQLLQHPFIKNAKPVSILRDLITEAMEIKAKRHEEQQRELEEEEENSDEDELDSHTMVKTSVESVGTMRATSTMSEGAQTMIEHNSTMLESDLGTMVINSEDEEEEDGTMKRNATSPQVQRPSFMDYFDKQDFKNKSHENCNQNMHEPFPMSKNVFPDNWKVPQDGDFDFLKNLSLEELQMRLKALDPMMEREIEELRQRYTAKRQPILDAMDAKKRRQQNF
Description: as §1

EIF2AK2 = target: T13, EIF2AK2 (Homo sapiens, UniProt P19525)
T13 construct: purchased ProQinase (Freiburg, Germany)
T13 sequence (P19525 whole entry): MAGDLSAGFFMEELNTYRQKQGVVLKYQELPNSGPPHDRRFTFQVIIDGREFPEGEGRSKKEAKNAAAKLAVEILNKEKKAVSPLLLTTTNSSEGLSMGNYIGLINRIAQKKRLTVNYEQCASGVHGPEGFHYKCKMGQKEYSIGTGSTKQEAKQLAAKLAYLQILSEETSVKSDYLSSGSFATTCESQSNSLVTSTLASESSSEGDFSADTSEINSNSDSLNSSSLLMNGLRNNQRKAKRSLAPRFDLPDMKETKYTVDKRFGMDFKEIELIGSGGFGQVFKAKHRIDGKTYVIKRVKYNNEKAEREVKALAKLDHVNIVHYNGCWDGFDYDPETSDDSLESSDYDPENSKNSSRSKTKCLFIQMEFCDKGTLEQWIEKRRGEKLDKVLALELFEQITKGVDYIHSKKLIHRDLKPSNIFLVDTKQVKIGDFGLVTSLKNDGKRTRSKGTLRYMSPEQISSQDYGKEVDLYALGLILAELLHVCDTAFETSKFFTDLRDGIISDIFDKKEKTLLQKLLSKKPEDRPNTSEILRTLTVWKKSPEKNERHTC
Description: as §1

VEGFR1 = target: T14, VEGFR1 (Homo sapiens, UniProt P17948)
T14 construct: purchased ProQinase (Freiburg, Germany)
Description: as §1

PKA = target: T15, PKA (Homo sapiens, UniProt P17612)
T15 construct: purchased ProQinase (Freiburg, Germany)
Description: as §1

TIE2 = target: T16, TIE2 (Homo sapiens, UniProt Q02763)
T16 construct: purchased ProQinase (Freiburg, Germany)
Description: as §1

CDK18/CycY = target: T17, CDK18/CycY (Homo sapiens, UniProt Q07002)
T17 construct: purchased ProQinase (Freiburg, Germany)
Description: as §1

CLK3 = target: T18, CLK3 (Homo sapiens, UniProt P49761)
T18 construct: purchased ProQinase (Freiburg, Germany)
Description: as §1

BUB1B = target: T19, BUB1B (Homo sapiens, UniProt O60566)
T19 construct: purchased ProQinase (Freiburg, Germany)
T19 sequence (O60566 whole entry): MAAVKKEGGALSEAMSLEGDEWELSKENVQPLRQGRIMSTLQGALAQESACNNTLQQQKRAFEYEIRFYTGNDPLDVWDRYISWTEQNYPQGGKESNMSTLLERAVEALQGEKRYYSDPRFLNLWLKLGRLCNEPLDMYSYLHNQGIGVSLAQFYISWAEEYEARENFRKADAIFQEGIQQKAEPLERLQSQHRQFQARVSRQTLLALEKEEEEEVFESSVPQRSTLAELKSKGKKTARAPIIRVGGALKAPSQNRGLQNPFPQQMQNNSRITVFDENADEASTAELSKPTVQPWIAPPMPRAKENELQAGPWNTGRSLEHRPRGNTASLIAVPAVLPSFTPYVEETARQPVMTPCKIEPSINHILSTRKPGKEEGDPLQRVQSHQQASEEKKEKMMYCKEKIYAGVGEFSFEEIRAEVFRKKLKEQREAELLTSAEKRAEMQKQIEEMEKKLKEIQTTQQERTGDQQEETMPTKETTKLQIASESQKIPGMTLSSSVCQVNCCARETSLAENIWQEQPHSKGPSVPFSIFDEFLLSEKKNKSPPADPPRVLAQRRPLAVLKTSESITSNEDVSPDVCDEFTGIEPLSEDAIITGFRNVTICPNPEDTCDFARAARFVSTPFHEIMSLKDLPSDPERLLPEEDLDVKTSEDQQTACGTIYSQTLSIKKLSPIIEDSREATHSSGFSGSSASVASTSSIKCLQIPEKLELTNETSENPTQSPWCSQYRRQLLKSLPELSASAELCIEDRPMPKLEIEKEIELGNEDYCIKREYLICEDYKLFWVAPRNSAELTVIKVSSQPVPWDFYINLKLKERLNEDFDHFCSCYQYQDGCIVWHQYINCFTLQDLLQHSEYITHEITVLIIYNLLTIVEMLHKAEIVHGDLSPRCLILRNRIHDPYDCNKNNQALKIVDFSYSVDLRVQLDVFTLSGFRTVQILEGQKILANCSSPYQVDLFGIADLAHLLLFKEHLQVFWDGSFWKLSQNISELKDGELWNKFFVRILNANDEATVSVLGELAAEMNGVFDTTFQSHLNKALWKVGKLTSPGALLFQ
Description: as §1

O=C(Cc1ccccc1)Nc1ccc(F)c(Nc2ccc3c(c2)CCCCC3=O)c1 [Compound 100]
Residual activity (PHKG2; 1.0E-05 M): 93 % of control
Residual activity (PHKG2; 1.0E-06 M): 96 % of control
Residual activity (AuroraB; 1.0E-05 M): 90 % of control
Residual activity (AuroraB; 1.0E-06 M): 101 % of control
Residual activity (CHK2; 1.0E-05 M): 72 % of control
Residual activity (CHK2; 1.0E-06 M): 92 % of control
Residual activity (AMPKalpha1; 1.0E-05 M): 101 % of control
Residual activity (AMPKalpha1; 1.0E-06 M): 112 % of control
Residual activity (AKT3; 1.0E-05 M): 100 % of control
Residual activity (AKT3; 1.0E-06 M): 114 % of control
Residual activity (CLK4; 1.0E-05 M): 98 % of control
Residual activity (CLK4; 1.0E-06 M): 103 % of control
Residual activity (CDK5/p35NCK; 1.0E-05 M): 93 % of control
Residual activity (CDK5/p35NCK; 1.0E-06 M): 105 % of control
Residual activity (PASK; 1.0E-05 M): 97 % of control
Residual activity (PASK; 1.0E-06 M): 107 % of control
Residual activity (PKCbeta2; 1.0E-05 M): 84 % of control
Residual activity (PKCbeta2; 1.0E-06 M): 105 % of control
Residual activity (PDK1; 1.0E-05 M): 57 % of control
Residual activity (PDK1; 1.0E-06 M): 102 % of control
Residual activity (MAP3K9; 1.0E-05 M): 96 % of control
Residual activity (MAP3K9; 1.0E-06 M): 102 % of control
Residual activity (MST2; 1.0E-05 M): 82 % of control
Residual activity (MST2; 1.0E-06 M): 94 % of control
Residual activity (EIF2AK2; 1.0E-05 M): 113 % of control
Residual activity (EIF2AK2; 1.0E-06 M): 97 % of control
Residual activity (VEGFR1; 1.0E-05 M): 93 % of control
Residual activity (VEGFR1; 1.0E-06 M): 100 % of control
inhibition at 10 µM (PKA): ≥ 50%
Residual activity (PKA; 1.0E-05 M): 21 % of control
Residual activity (PKA; 1.0E-06 M): 97 % of control
Residual activity (TIE2; 1.0E-05 M): 66 % of control
Residual activity (TIE2; 1.0E-06 M): 96 % of control
Residual activity (CDK18/CycY; 1.0E-05 M): 88 % of control
Residual activity (CDK18/CycY; 1.0E-06 M): 93 % of control
Residual activity (CLK3; 1.0E-05 M): 114 % of control
Residual activity (CLK3; 1.0E-06 M): 130 % of control
Residual activity (BUB1B; 1.0E-05 M): 96 % of control
Residual activity (BUB1B; 1.0E-06 M): 108 % of control

O=C(Nc1ccc(F)c(Nc2ccc3c(c2)CCCCC3=O)c1)c1cccc(F)c1 [Compound 109]
Residual activity (PHKG2; 1.0E-05 M): 95 % of control
Residual activity (PHKG2; 1.0E-06 M): 102 % of control
Residual activity (AuroraB; 1.0E-05 M): 85 % of control
Residual activity (AuroraB; 1.0E-06 M): 101 % of control
Residual activity (CHK2; 1.0E-05 M): 74 % of control
Residual activity (CHK2; 1.0E-06 M): 94 % of control
Residual activity (AMPKalpha1; 1.0E-05 M): 98 % of control
Residual activity (AMPKalpha1; 1.0E-06 M): 99 % of control
Residual activity (AKT3; 1.0E-05 M): 102 % of control
Residual activity (AKT3; 1.0E-06 M): 95 % of control
Residual activity (CLK4; 1.0E-05 M): 108 % of control
Residual activity (CLK4; 1.0E-06 M): 105 % of control
Residual activity (CDK5/p35NCK; 1.0E-05 M): 101 % of control
Residual activity (CDK5/p35NCK; 1.0E-06 M): 95 % of control
Residual activity (PASK; 1.0E-05 M): 97 % of control
Residual activity (PASK; 1.0E-06 M): 95 % of control
Residual activity (PKCbeta2; 1.0E-05 M): 90 % of control
Residual activity (PKCbeta2; 1.0E-06 M): 97 % of control
Residual activity (PDK1; 1.0E-05 M): 80 % of control
Residual activity (PDK1; 1.0E-06 M): 98 % of control
Residual activity (MAP3K9; 1.0E-05 M): 103 % of control
Residual activity (MAP3K9; 1.0E-06 M): 89 % of control
Residual activity (MST2; 1.0E-05 M): 75 % of control
Residual activity (MST2; 1.0E-06 M): 90 % of control
Residual activity (EIF2AK2; 1.0E-05 M): 114 % of control
Residual activity (EIF2AK2; 1.0E-06 M): 94 % of control
Residual activity (VEGFR1; 1.0E-05 M): 93 % of control
Residual activity (VEGFR1; 1.0E-06 M): 101 % of control
inhibition at 10 µM (PKA): ≥ 50%
Residual activity (PKA; 1.0E-05 M): 49 % of control
Residual activity (PKA; 1.0E-06 M): 86 % of control
Residual activity (TIE2; 1.0E-05 M): 78 % of control
Residual activity (TIE2; 1.0E-06 M): 87 % of control
Residual activity (CDK18/CycY; 1.0E-05 M): 98 % of control
Residual activity (CDK18/CycY; 1.0E-06 M): 91 % of control
Residual activity (CLK3; 1.0E-05 M): 105 % of control
Residual activity (CLK3; 1.0E-06 M): 110 % of control
Residual activity (BUB1B; 1.0E-05 M): 106 % of control
Residual activity (BUB1B; 1.0E-06 M): 104 % of control
